The text below walks through data of patent publication US9220705B2, “Method of treating colorectal cancer” (priority 2013, dated 2015).

SMILES strings stand for the structures. Values joined by “and” are separate entries in the source; they are usually repeats but may differ in a detail not shown here. Identical values can stand only once. “Also recorded” adds a separate entry of the source. Marks after values point to notes of the source that are not given here.

As a reminder, the IC50 is the midpoint of a concentration-inhibition curve. Lower therefore signals higher potency.

For data set [1], the system named is LoVo-OXP cells. Nature of the data set: Cellular platinum uptake by GF-AAS. As to conditions: LoVo-OXP resistant cells, 5 μM, 6, 24, 48 h, FIG. 2 panel B, compared with LoVo. The format is cell-based, human. On the procedure:
LoVo and LoVo-OXP cells (2×10^6) were seeded in 75 cm^2 flasks in growth medium (20 ml). After 24 h, the medium was replaced and the cells incubated for different times (6, 24 or 48 h) in the presence of the tested complexes. Cell monolayers were washed twice with cold PBS and harvested. Samples were subjected to three freezing/thawing cycles at −80° C., and then vigorously vortexed. Aliquots were removed for the determination of protein content by the BioRad protein assay (BioRad). The samples were treated with 1 mL of highly pure nitric acid (Pt: ≦0.01 μg×kg^−1, TraceSELECT® Ultra, Sigma Chemical Co.) and transferred into a microwave teflon vessel. Subsequently, samples were submitted to a standard procedure using a speed wave MWS-3 Berghof instrument (Eningen, Germany). After cooling, each mineralized sample was analyzed for platinum by using a Varian AA Duo graphite furnace atomic absorption spectrometer (Varian, Palo Alto, Calif.; USA) at the wavelength of […]. The calibration curve was obtained using known concentrations of standard solutions purchased from Sigma Chemical Co.
It is well-known that cellular uptake is an important factor influencing drug efficacy. […] The intracellular platinum was quantified by means of GF-AAS analysis and the results, expressed as μg metal mg^−1 of cellular proteins, are summarized in FIG. 2.

For data set [2] the following is noted: literature values; cited from earlier work.
In data set [3] the test system is LoVo-OXP oxaliplatin resistant colon cancer cells. The data set can be described thus: MTT cytotoxicity assay, cross-resistance profile. The format is cell-based, human. The source says:
(§1) Human breast (MCF-7) and colon (HCT-15, DDL1, SW480 and CaCo-2) carcinoma cell lines along with melanoma (A375) were obtained from the American Type Culture Collection (ATCC, Rockville, Md.). A431 are human cervical carcinoma cells kindly provided by Prof. F. Zunino (Molecular Pharmacology Unit, Experimental Oncology and Molecular Medicine, Istituto Nazionale dei Tumori, Milan, Italy). […] G. Marverti (Dept. of Biomedical Science, University of Modena, Italy). LoVo human colon-carcinoma cell line and its multidrug-resistant sublime (LoVo MDR) were kindly provided by Prof F. Maj one (Department of Biology of Padova University, Italy). […] Cell lines were maintained in the logarithmic phase at 37° C. in a 5% carbon dioxide atmosphere using the following culture media containing 10% fetal calf serum (Euroclone, Milan, Italy), antibiotics (50 units mL^−1 penicillin and 50 μg mL^−1 streptomycin), and 2 mM L-glutamine in: i) RPMI-1640 medium (Euroclone) for MCF-7, HCT-15, A431, DLD 1, 2008, and C13* cells; ii) F-12 HAM'S (Sigma Chemical Co.) for LoVo, LoVo MDR, and LoVo-OXP cells; iii) DMEM for A375 and SW 480 cells; and iv) MEM for CaCo-2 cells.
(§2) The growth inhibitory effect towards tumor cell lines was evaluated by means of the MTT (3-(4,5-dimethylthiazol-2-yl)-2,5-diphenyltetrazolium bromide) assay (Alley, M. C., et al., Cancer Res. 1988, 48, 589-601).
(§3) Briefly, depending upon the growth characteristics of the cell line, 3-8×10^3 cells well^−1, were seeded in 96-well microplates in growth medium (100 μL) and then incubated at 37° C. in a 5% carbon dioxide atmosphere. After 24 h, the medium was removed and replaced with a fresh one containing the compound to be studied, at the appropriate concentration, dissolved in 0.9% sodium chloride solution just before use. Triplicate cultures were established for each treatment. After 72 h, each well was treated with […] of a 5 mg mL^−1 MTT saline solution and, after 5 h of incubation, 100 μL of a sodium dodecylsulfate (SDS) solution in 0.01 M HCl were added. After an overnight incubation, the inhibition of cell growth induced by the tested complexes was determined by measuring the absorbance of each well at 570 nm using a BioRad 680 microplate reader. Mean absorbance for each drug dose was expressed as percentage of the control and plotted vs. drug concentration. Dose-response curves were fitted and IC50 values were calculated with four parameter logistic model (4PL).
(§4) A LoVo cell line retaining a multidrug resistance phenotype was also considered (LoVo MDR). Cross-resistance profiles were evaluated by means of the resistance factor (RF), which is defined as the ratio between the IC50 value for the resistant cells and that arising from the sensitive cells (Table 2).

The subject of data set [4] is 2008 ovarian cancer cells. Nature of the data set: MTT cytotoxicity assay, cross-resistance profile. The format is cell-based, human. To be noted: 72 h.
Description: as §1, §2, §3, §4
For orientation: Formazan colour is commonly taken as a measure of viable cells.

The subject of data set [5] is C13* cisplatin resistant ovarian cancer cells. The data set can be described thus: MTT cytotoxicity assay, cross-resistance profile. The format is cell-based, human.
Description: as §1, §2, §3, §4

In data set [6] the test system is Lewis lung carcinoma (LLC). Nature of the data set: In vivo anticancer activity toward Lewis lung carcinoma. More on the design: species or system C57BL mice. As to conditions: daily dose i.p. 1.5 mg kg^−1 from day 9; day 15. Here is the method:
All studies involving animal testing were carried out in accordance with the ethical guidelines for animal research adopted by the University of Padua, acknowledging the Italian regulation and the European Directive 86/609/EEC as to animal welfare and protection and the related codes of practice. The mice were purchased from Charles River, Italy, and housed in steel cages under controlled environmental conditions (constant temperature, humidity, and 12 h dark/light cycle) and alimented with commercial standard feed and tap water ad libitum. Animals were observed daily, and body weight and food intake recorded. The Lewis lung carcinoma (LLC) cell line was purchased from ECACC, UK. The LLC cell line was maintained in D-MEM (Euroclone) supplemented with 10% heat-inactivated FBS (Euroclone), 10 mM L-glutamine, 100 U mL^−1 penicillin, and 100 μg mL^−1 streptomycin in a 5% CO2 air incubator at 37° C.
The Lewis lung carcinoma (LLC) was implanted i.m. as a 2×10^6 cell inoculum into the right hind leg of 8-week old male and female C57BL mice (24±3 g body weight). […] At day 15, animals were sacrificed, the legs were amputated at the proximal end of the femur, and the inhibition of tumor growth was determined according to the difference in weight of the tumor-bearing leg and the healthy leg of the animals expressed as % referred to the control animals. Body weight was measured every two days and was taken as a parameter for systemic toxicity.
All the values are the means±S.D. of not less than three measurements. Multiple comparisons were made by Tukey-Kramer test (**p<0.01; *p or °p<0.05).
The in vivo antitumor activity of compound 1 was evaluated in a model of solid tumor, the syngeneic murine Lewis lung carcinoma (LLC). […] For the assessment of the adverse side effects, changes in body weights of tumor-bearing mice were monitored daily (FIG. 3).

The subject of data set [7] is DLD-1. Nature of the data set: MTT cytotoxicity assay, 72 h. It is filed as cell-based, human. As to conditions: DLD-1, colon.
Description: as §1, §2, §3
(§5) Compound 1 was prepared for the first time almost twenty years ago however, until now, it had been tested (both in vitro and in vivo) only in a limited number of tumor cell lines (Hoeschele, J. D., et al., J. Med. Chem. 1994, 37, 2630-2636 and Shamsuddin, S., et al., J. Inorg. Biochem. 1996, 61, 291-301). The Pt(II) and Pt(IV) complexes containing isomeric forms of diaminocyclohexane, [PtCl2(cis-1,4-DACHA](1), [PtCl2(1R,2R-DACH)] (2), [Pt(OXA)(cis-1,4-DACH)] (3), cis,trans,cis-[Pt^IVCl2(OH)2(cis-1,4-DACH)] (4), cis,trans,cis-[Pt^IVCl2(DCA)2(cis-1,4-DACH)] (5), [Pt(CBDCA)(cis-1,4-DACH)] (6), cis,trans,cis-[Pt^IV(OXA)(OH)2(cis-1,4-DACH)] (7), and cis,trans,cis-[Pt^IV(OXA)(DCA)2(cis-1,4-DACH)] (8) were evaluated for their cytotoxic activity towards a panel of human tumor cell lines including cervical (A431), breast (MCF-7), cancers along with a melanoma (A375) and 4 different colon cancer cell lines corresponding to different stages of the disease progression (HCT-15, SW480, CaCo-2, DLD-1). The cytotoxicity was evaluated by means of the MTT test for 72 h treatment with increasing concentrations of the tested compounds.

Data set [8] deals with A431. Nature of the data set: MTT cytotoxicity assay, 72 h. As to conditions: A431, cervix. The format is cell-based, human.
Description: as §1, §2, §3, §5

Data set [9] relates to SW480. Nature of the data set: MTT cytotoxicity assay, 72 h. It is filed as cell-based, human. As to conditions: SW480, colon.
Description: as §1, §2, §3, §5

For data set [10], the system named is MCF-7. Nature of the data set: MTT cytotoxicity assay, 72 h. The format is cell-based, human. To be noted: MCF-7, breast.
Description: as §1, §2, §3, §5

The test system of data set [11] is HCT-15. The data set can be described thus: MTT cytotoxicity assay, 72 h. The format is cell-based, human. As to conditions: HCT-15, colon.
Description: as §1, §2, §3, §5

Data set [12] concerns A375. The data set can be described thus: MTT cytotoxicity assay, 72 h. It is filed as cell-based, human. As to conditions: A375, skin.
Description: as §1, §2, §3, §5

Data set [13] relates to LoVo colon cancer cells. The data set can be described thus: MTT cytotoxicity assay, cross-resistance profile. As to conditions: 72 h. It is filed as cell-based, human.
Description: Human breast (MCF-7) and colon (HCT-15, DDL1, SW480 and CaCo-2) carcinoma cell lines along with melanoma (A375) were obtained from the American Type Culture Collection (ATCC, Rockville, Md.). A431 are human cervical carcinoma cells kindly provided by Prof. F. Zunino (Molecular Pharmacology Unit, Experimental Oncology and Molecular Medicine, Istituto Nazionale dei Tumori, Milan, Italy). […] G. Marverti (Dept. of Biomedical Science, University of Modena, Italy). LoVo human colon-carcinoma cell line and its multidrug-resistant sublime (LoVo MDR) were kindly provided by Prof F. Maj one (Department of Biology of Padova University, Italy).
as §2, §3, §4

Data set [14] concerns LoVo MDR multidrug resistant colon carcinoma subline. The data set can be described thus: MTT cytotoxicity assay, cross-resistance profile. The format is cell-based, human.
Description: as §1, §2, §3, §4
In Table 2 are also reported the results obtained in a multidrug resistant (MDR) colon carcinoma subline, LoVo MDR, in which the resistance to doxorubicin, a drug belonging to the MDR spectrum, is associated with an overexpression of multi-specific drug transporters, such as the 170 kDa P-glycoprotein (P-gp) (Wersinger, C., et al., Amino Acids 2000, 19, 667-685). It is well known that acquired MDR, whereby cells become refractory to multiple drugs, poses most important challenge to the success of anticancer chemotherapy.

As for `[Cl][Pt]1([Cl])[NH][C@@H]2CCCC[C@H]2[NH]1` [Compound 2, [SP-4-2]-dichloro[(1R,2R)-1,2-cyclohexanediamine-N^1,N^2]platinum], the intracellular platinum accumulation result in data set [1] is reported as “remarkably decreased; also recorded: decreases remarkably”. Besides, the “log Po/w” value in [2] is on record as −1.40.

In the case of `N.N.[Cl][Pt][Cl]` [cisplatin, cis-diamminedichloroplatinum(II), reference compound], the “R.F. (resistance factor)” value stood at 1.7 in data set [3] (IC50 LoVo-OXP / IC50 LoVo, cross-resistance with oxaliplatin); 10.5 in data set [5] (IC50 C13* / IC50 2008, cross-resistance with cisplatin); 1.1 in data set [14] (IC50 LoVo-MDR / IC50 LoVo). In addition, the IC50 in data set [3] (LoVo-OXP, 72 h, MTT) turned out to be 13.1 ± 2.47 µM; in data set [4] it was 2.26 ± 1.06 µM; in [5] (C13*, 72 h, MTT), 23.7 ± 2.42 µM; in [7], 8.01 ± 2.22 µM; in [8], 1.96 ± 0.84 µM; in data set [9], 7.67 ± 1.34 µM. For the same compound, the IC50 in [10] came to 8.37 ± 2.96 µM; in data set [11], 15.5 ± 2.48 µM; in data set [12] it was 2.06 ± 1.01 µM; in data set [13] it was 7.63 ± 1.53 µM; in data set [14] (LoVo-MDR, 72 h, MTT), 7.53 ± 0.98 µM. Also, the “Average tumor weight (mean ± SD, g)” value in [6] is listed as 0.199 ± 0.10** g. Further, in data set [6], the “Inhibition of tumor growth (%)” value was 75% and 74.66%.
